How the values were obtained:
[1] = system: GM1 production in Jurkat cells; assay: cells; assay type: cell-based; conditions: Homo sapiens, Jurkat, 72 h
[2] = biological target: T1, glucosylceramide synthase (GCS) (Homo sapiens, UniProt Q16739); assay: GCS enzyme inhibition assay (A549 cell lysate, NBD C6-ceramide, HPLC fluorescence); assay type: biochemical; conditions: inhibitory activity against GCS, 37° C., 90 minutes
T1 construct: The obtained supernatant was used; host or cells: A549 cells (lysate supernatant after sonication)
T1 sequence (Q16739 1-394): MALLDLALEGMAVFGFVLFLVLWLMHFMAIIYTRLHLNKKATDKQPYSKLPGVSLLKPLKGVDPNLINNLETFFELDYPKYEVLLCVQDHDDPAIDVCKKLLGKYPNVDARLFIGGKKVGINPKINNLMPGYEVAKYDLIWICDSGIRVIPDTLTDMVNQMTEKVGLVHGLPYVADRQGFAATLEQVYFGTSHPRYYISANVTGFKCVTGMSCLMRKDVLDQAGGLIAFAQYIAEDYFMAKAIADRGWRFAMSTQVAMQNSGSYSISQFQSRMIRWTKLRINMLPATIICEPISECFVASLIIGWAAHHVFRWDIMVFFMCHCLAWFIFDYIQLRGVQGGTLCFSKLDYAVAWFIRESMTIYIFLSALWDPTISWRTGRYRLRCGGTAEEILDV
Outline: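 Percent GCS activity was derived from the GlcCer share of Cer plus GlcCer areas, scaled from ibiglustat (0%) to DMSO (100%). Enzyme came from sonicated A549 lysate in 50 mM HEPES pH 7.3; 90 min incubation at 37° C, chloroform/methanol stop and extraction.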

SMILES: CC(C)COc1ccc(-c2ccc3c(c2)OCC(C)(C)C3NC(=O)O[C@@H]2CN3CCC2CC3)cc1 (stereo partly drawn) [Example 260, (S)-quinuclidin-3-yl (7-(4-isobutoxyphenyl)-3,3-dimethylchroman-4-yl)carbamate]
- IC50 [1]: 0.3 nM
- IC50 [2]: 0.51 nM

SMILES: CC(C)Oc1ccc(-c2ccc3c(c2)OCC(C)(C)C3NC(=O)O[C@@H]2CN3CCC2CC3)cc1F (stereo partly drawn) [Example 261, (S)-quinuclidin-3-yl (7-(3-fluoro-4-isopropoxyphenyl)-3,3-dimethylchroman-4-yl)carbamate]
- IC50 [1]: 2.6 nM
- IC50 [2]: 0.65 nM

SMILES: CC1(C)COc2cc(-c3ccc(C(F)(F)F)cc3F)ccc2C1NC(=O)O[C@@H]1CN2CCC1CC2 (stereo partly drawn) [Example 262, (S)-quinuclidin-3-yl (7-(2-fluoro-4-(trifluoromethyl)phenyl)-3,3-dimethylchroman-4-yl)carbamate]
- IC50 [1]: 3.7 nM
- IC50 [2]: 0.52 nM

SMILES: Cc1cc(-c2ccc3c(c2)OCC(C)(C)C3NC(=O)O[C@@H]2CN3CCC2CC3)cc(C)c1OC(C)C (stereo partly drawn) [Example 263, (S)-quinuclidin-3-yl (7-(4-isopropoxy-3,5-dimethylphenyl)-3,3-dimethylchroman-4-yl)carbamate]
- IC50 [1]: 4 nM
- IC50 [2]: 1.44 nM

SMILES: CC1(C)COc2cc(-c3ccccc3)ccc2C1NC(=O)O[C@@H]1CN2CCC1CC2 (stereo partly drawn) [Example 264, (S)-quinuclidin-3-yl (3,3-dimethyl-7-phenylchroman-4-yl)carbamate]
- IC50 [1]: 0.7 nM
- IC50 [2]: 0.35 nM

SMILES: CC1(C)COc2cc(-c3cccnc3)ccc2C1NC(=O)O[C@@H]1CN2CCC1CC2 (stereo partly drawn) [Example 265, (S)-quinuclidin-3-yl (3,3-dimethyl-7-(pyridin-3-yl)chroman-4-yl)carbamate]
- IC50 [1]: 38.7 nM
- IC50 [2]: 2.03 nM

SMILES: CC1(C)COc2cc(-c3ccccn3)ccc2C1NC(=O)O[C@@H]1CN2CCC1CC2 (stereo partly drawn) [Example 266, (S)-quinuclidin-3-yl (3,3-dimethyl-7-(pyridin-2-yl)chroman-4-yl)carbamate]
- IC50 [1]: 26.9 nM
- IC50 [2]: 4.07 nM

SMILES: CC1(C)COc2cc(Cc3ccccc3)ccc2C1NC(=O)O[C@@H]1CN2CCC1CC2 (stereo partly drawn) [Example 267, (S)-quinuclidin-3-yl (7-benzyl-3,3-dimethylchroman-4-yl)carbamate]
- IC50 [1]: 9.1 nM
- IC50 [2]: 1.48 nM

SMILES: Cc1cccc(-c2ccc3c(c2)OCC(C)(C)C3NC(=O)O[C@@H]2CN3CCC2CC3)c1 (stereo partly drawn) [Example 268, (S)-quinuclidin-3-yl (3,3-dimethyl-7-(m-tolyl)chroman-4-yl)carbamate]
- IC50 [1]: 1.4 nM
- IC50 [2]: 0.62 nM

SMILES: Cc1ccc(-c2ccc3c(c2)OCC(C)(C)C3NC(=O)O[C@@H]2CN3CCC2CC3)cc1 (stereo partly drawn) [Example 269, (S)-quinuclidin-3-yl (3,3-dimethyl-7-(p-tolyl)chroman-4-yl)carbamate]
- IC50 [1]: 1.9 nM
- IC50 [2]: 0.66 nM

SMILES: Cc1ccccc1-c1ccc2c(c1)OCC(C)(C)C2NC(=O)O[C@@H]1CN2CCC1CC2 (stereo partly drawn) [Example 270, (S)-quinuclidin-3-yl (3,3-dimethyl-7-(o-tolyl)chroman-4-yl)carbamate]
- IC50 [1]: 1 nM
- IC50 [2]: 0.78 nM

SMILES: CC1(C)COc2cc(/C=C/c3ccsc3)ccc2C1NC(=O)O[C@@H]1CN2CCC1CC2 (stereo partly drawn) [Example 271, (S)-quinuclidin-3-yl (3,3-dimethyl-7-((E)-2-(thiophen-3-yl)vinyl)chroman-4-yl)carbamate]
- IC50 [1]: 9 nM
- IC50 [2]: 1.26 nM

SMILES: C=Cc1ccc(-c2ccc3c(c2)OCC(C)(C)C3NC(=O)O[C@@H]2CN3CCC2CC3)cc1 (stereo partly drawn) [Example 272, (S)-quinuclidin-3-yl (3,3-dimethyl-7-(4-vinylphenyl)chroman-4-yl)carbamate]
- IC50 [1]: 4.4 nM
- IC50 [2]: 0.89 nM

SMILES: CCc1ccc(-c2ccc3c(c2)OCC(C)(C)C3NC(=O)O[C@@H]2CN3CCC2CC3)cc1 (stereo partly drawn) [Example 273, (S)-quinuclidin-3-yl (7-(4-ethylphenyl)-3,3-dimethylchroman-4-yl)carbamate]
- IC50 [1]: 2.9 nM
- IC50 [2]: 0.46 nM

SMILES: C=Cc1ccccc1-c1ccc2c(c1)OCC(C)(C)C2NC(=O)O[C@@H]1CN2CCC1CC2 (stereo partly drawn) [Example 274, (S)-quinuclidin-3-yl (3,3-dimethyl-7-(2-vinylphenyl)chroman-4-yl)carbamate]
- IC50 [1]: 1.7 nM
- IC50 [2]: 0.58 nM

SMILES: CCOc1ccc(-c2ccc3c(c2)OCC(C)(C)C3NC(=O)O[C@@H]2CN3CCC2CC3)c(C)c1 (stereo partly drawn) [Example 275, (S)-quinuclidin-3-yl (7-(4-ethoxy-2-methylphenyl)-3,3-dimethylchroman-4-yl)carbamate]
- IC50 [1]: 2.6 nM
- IC50 [2]: 0.84 nM

SMILES: CC1(C)COc2cc(-c3ccc(OCc4ccccc4)cc3)ccc2C1NC(=O)O[C@@H]1CN2CCC1CC2 (stereo partly drawn) [Example 276, (S)-quinuclidin-3-yl (7-(4-(benzyloxy)phenyl)-3,3-dimethylchroman-4-yl)carbamate]
- IC50 [1]: 1.3 nM
- IC50 [2]: 0.54 nM

SMILES: CC1(C)COc2cc(-c3cccc(OCc4ccccc4)c3)ccc2C1NC(=O)O[C@@H]1CN2CCC1CC2 (stereo partly drawn) [Example 277, (S)-quinuclidin-3-yl (7-(3-(benzyloxy)phenyl)-3,3-dimethylchroman-4-yl)carbamate]
- IC50 [1]: 0.9 nM
- IC50 [2]: 0.65 nM

SMILES: CC1(C)COc2cc(-c3ccc(F)nc3F)ccc2C1NC(=O)O[C@@H]1CN2CCC1CC2 (stereo partly drawn) [Example 278, (S)-quinuclidin-3-yl (7-(2,6-difluoropyridin-3-yl)-3,3-dimethylchroman-4-yl)carbamate]
- IC50 [1]: 12.4 nM
- IC50 [2]: 2.19 nM

SMILES: C=CCc1ccccc1-c1ccc2c(c1)OCC(C)(C)C2NC(=O)O[C@@H]1CN2CCC1CC2 (stereo partly drawn) [Example 279, (S)-quinuclidin-3-yl (7-(2-allylphenyl)-3,3-dimethylchroman-4-yl)carbamate]
- IC50 [1]: 6.2 nM
- IC50 [2]: 0.73 nM

SMILES: CC1(C)COc2cc(-c3ccc(CC#N)cc3)ccc2C1NC(=O)O[C@@H]1CN2CCC1CC2 (stereo partly drawn) [Example 280, (S)-quinuclidin-3-yl (7-(4-(cyanomethyl)phenyl)-3,3-dimethylchroman-4-yl)carbamate]
- IC50 [1]: 9.3 nM
- IC50 [2]: 0.62 nM

SMILES: CC1(C)COc2cc(-c3cccc(CC#N)c3)ccc2C1NC(=O)O[C@@H]1CN2CCC1CC2 (stereo partly drawn) [Example 281, (S)-quinuclidin-3-yl (7-(3-(cyanomethyl)phenyl)-3,3-dimethylchroman-4-yl)carbamate]
- IC50 [1]: 6.9 nM
- IC50 [2]: 0.65 nM

SMILES: CC1(C)COc2cc(/C=C/c3ccc(-c4ccccc4)cc3)ccc2C1NC(=O)O[C@@H]1CN2CCC1CC2 (stereo partly drawn) [Example 282, (S)-quinuclidin-3-yl (7-((E)-2-([1,1′-diphenyl]-4-yl)vinyl)-3,3-dimethylchroman-4-yl)carbamate]
- IC50 [1]: 2 nM
- IC50 [2]: 1.64 nM

SMILES: CC1(C)COc2cc(-c3cnc(C4CC4)nc3)ccc2C1NC(=O)O[C@@H]1CN2CCC1CC2 (stereo partly drawn) [Example 283, (S)-quinuclidin-3-yl (7-(2-cyclopropylpyrimidin-5-yl)-3,3-dimethylchroman-4-yl)carbamate]
- IC50 [1]: 25.6 nM
- IC50 [2]: 2.2 nM

SMILES: CC1(C)COc2cc(/C=C/c3ccc(C(F)(F)F)cc3)ccc2C1NC(=O)O[C@@H]1CN2CCC1CC2 (stereo partly drawn) [Example 284, (S)-quinuclidin-3-yl (3,3-dimethyl-7-((E)-4-(trifluoromethyl)styryl)chroman-4-yl)carbamate]
- IC50 [1]: 0.5 nM
- IC50 [2]: 0.91 nM

SMILES: Cc1cc(C)c(Cl)c(-c2ccc3c(c2)OCC(C)(C)C3NC(=O)O[C@@H]2CN3CCC2CC3)c1 (stereo partly drawn) [Example 285, (S)-quinuclidin-3-yl (7-(2-chloro-3,5-dimethylphenyl)-3,3-dimethylchroman-4-yl)carbamate]
- IC50 [1]: 9.7 nM
- IC50 [2]: 1.96 nM

SMILES: CC1(C)COc2cc(/C=C/c3ccc(F)cc3F)ccc2C1NC(=O)O[C@@H]1CN2CCC1CC2 (stereo partly drawn) [Example 286, (S)-quinuclidin-3-yl (7-((E)-2,4-difluorostyryl)-3,3-dimethylchroman-4-yl)carbamate]
- IC50 [1]: 3.3 nM
- IC50 [2]: 0.93 nM

SMILES: CCc1ccc(/C=C/c2ccc3c(c2)OCC(C)(C)C3NC(=O)O[C@@H]2CN3CCC2CC3)cc1 (stereo partly drawn) [Example 287, (S)-quinuclidin-3-yl (7-((E)-4-ethylstyryl)-3,3-dimethylchroman-4-yl)carbamate]
- IC50 [1]: 1 nM
- IC50 [2]: 0.79 nM

SMILES: CCOc1ccc2cc(-c3ccc4c(c3)OCC(C)(C)C4NC(=O)O[C@@H]3CN4CCC3CC4)ccc2c1 (stereo partly drawn) [Example 288, (S)-quinuclidin-3-yl (7-(6-ethoxynaphthalen-2-yl)-3,3-dimethylchroman-4-yl)carbamate]
- IC50 [1]: 0.7 nM
- IC50 [2]: 1.11 nM

SMILES: CC1(C)COc2cc(/C=C/c3cccc(F)c3)ccc2C1NC(=O)O[C@@H]1CN2CCC1CC2 (stereo partly drawn) [Example 289, (S)-quinuclidin-3-yl (7-((E)-3-fluorostyryl)-3,3-dimethylchroman-4-yl)carbamate]
- IC50 [1]: 1.4 nM
- IC50 [2]: 0.61 nM

SMILES: CC1(C)COc2cc(-c3cccc4c3oc3ccccc34)ccc2C1NC(=O)O[C@@H]1CN2CCC1CC2 (stereo partly drawn) [Example 290, (S)-quinuclidin-3-yl (7-(dibenzo[b,d]furan-4-yl)-3,3-dimethylchroman-4-yl)carbamate]
- IC50 [1]: 0.9 nM
- IC50 [2]: 1.54 nM

SMILES: CC1(C)COc2cc(-c3ccc(C#N)c(F)c3)ccc2C1NC(=O)O[C@@H]1CN2CCC1CC2 (stereo partly drawn) [Example 291, (S)-quinuclidin-3-yl (7-(4-cyano-3-fluorophenyl)-3,3-dimethylchroman-4-yl)carbamate]
- IC50 [1]: 8.9 nM
- IC50 [2]: 1.03 nM

Source: patent US12673944B2, “Compounds having inhibitory activity against glucosylceramide synthase or pharmaceutically acceptable salt thereof, processes for preparing the same, and pharmaceutical compositions comprising the same” (YUHAN CORPORATION, priority 2019, dated 2026)
